Results: ChEMBL document CHEMBL2331452, “3D-QSAR studies of 1,2-diaryl-1H-benzimidazole derivatives as JNK3 inhibitors with protective effects in neuronal cells” (Bioorg Med Chem Lett, 2013)

Molecular target: Mitogen-activated protein kinase 10 (Homo sapiens, UniProt P53779)
Assay: Binding affinity to JNK3 (unknown origin) by surface plasmon resonance analysis in presence of ATP

Mitogen-activated protein kinase 10, sequence (P53779 whole entry): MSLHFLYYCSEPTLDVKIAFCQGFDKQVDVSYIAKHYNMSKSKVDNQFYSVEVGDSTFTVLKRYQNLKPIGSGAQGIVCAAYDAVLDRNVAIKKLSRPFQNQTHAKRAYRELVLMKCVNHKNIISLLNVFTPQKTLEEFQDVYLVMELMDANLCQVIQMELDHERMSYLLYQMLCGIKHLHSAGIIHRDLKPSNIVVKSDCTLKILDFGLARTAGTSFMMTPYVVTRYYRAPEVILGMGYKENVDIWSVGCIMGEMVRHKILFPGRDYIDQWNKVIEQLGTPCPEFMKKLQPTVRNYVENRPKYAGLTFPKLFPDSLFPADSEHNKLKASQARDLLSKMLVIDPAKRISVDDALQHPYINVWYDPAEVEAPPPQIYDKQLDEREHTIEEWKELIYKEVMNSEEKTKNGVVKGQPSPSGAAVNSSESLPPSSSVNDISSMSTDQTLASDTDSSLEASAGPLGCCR

COc1ccc2c(c1)nc(-c1ccc(Cl)c(Cl)c1)n2-c1ccnc(NC2CCCCC2)c1
Kd (read-out: Kd): 18.1 µM
Kd (read-out: pKd (converted)): 18.2 µM

COc1ccc2nc(-c3ccc4ccccc4c3)n(-c3ccnc(NC4CCCCC4)n3)c2c1
Kd (read-out: Kd): 1.77 µM
Kd (read-out: pKd (converted)): 1.74 µM

C[C@H](O)CNc1cc(-n2c(-c3ccc4ccccc4c3)nc3ccccc32)ccn1
Kd (read-out: Kd): 12.7 µM
Kd (read-out: pKd (converted)): 12.6 µM

Oc1ccc2c(c1)nc(-c1ccc3ccccc3c1)n2-c1ccnc(N[C@@H]2CCCNC2)c1
Kd (read-out: Kd): 6.05 µM
Kd (read-out: pKd (converted)): 6.03 µM

COc1ccc2c(c1)nc(-c1ccc3ccccc3c1)n2-c1ccnc(N[C@@H]2CCCN(C(=O)C3CC3)C2)n1
Kd (read-out: Kd): 2.91 µM
Kd (read-out: pKd (converted)): 2.88 µM

c1ccc2cc(-c3nc4ccccc4n3-c3ccnc(NC4CCCCC4)c3)ccc2c1
Kd (read-out: Kd): 5.26 µM
Kd (read-out: pKd (converted)): 5.25 µM

c1ccc2cc(-c3nc4ccccc4n3-c3ccnc(NC4CCCCC4)n3)ccc2c1
Kd (read-out: Kd): 1.75 µM
Kd (read-out: pKd (converted)): 1.74 µM

O=C(C1CC1)N1CCC[C@@H](Nc2nccc(-n3c(-c4ccc5ccccc5c4)nc4ccccc43)n2)C1
Kd (read-out: Kd): 1.93 µM
Kd (read-out: pKd (converted)): 1.95 µM

Oc1ccc2nc(-c3ccc4ccccc4c3)n(-c3ccnc(NC4CCCCC4)n3)c2c1
Kd (read-out: Kd): 31.7 µM
Kd (read-out: pKd (converted)): 31.6 µM

Clc1ccc(-c2nc3ccccc3n2-c2ccnc(NC3CCOCC3)n2)cc1Cl
Kd (read-out: Kd): 21.8 µM
Kd (read-out: pKd (converted)): 21.9 µM

COc1ccc2nc(-c3ccc4ccccc4c3)n(-c3ccnc(N[C@@H]4CCCN(C(=O)C5CC5)C4)n3)c2c1
Kd (read-out: Kd): 1.17 µM
Kd (read-out: pKd (converted)): 1.17 µM

Oc1ccc2c(c1)nc(-c1ccc3ccccc3c1)n2-c1ccnc(NC2CCOCC2)c1
Kd (read-out: Kd): 10 µM
Kd (read-out: pKd (converted)): 10 µM

O=C(C1CC1)N1CCC[C@@H](Nc2cc(-n3c(-c4cccc(O)c4)nc4ccccc43)ccn2)C1
Kd (read-out: Kd): 2.64 µM
Kd (read-out: pKd (converted)): 2.63 µM

O=C(C1CC1)N1CCC[C@@H](Nc2cc(-n3c(-c4ccc5ccccc5c4)nc4cc(O)ccc43)ccn2)C1
Kd (read-out: Kd): 27.7 µM
Kd (read-out: pKd (converted)): 27.5 µM

Oc1ccc2nc(-c3ccc4ccccc4c3)n(-c3ccnc(NC4CCOCC4)n3)c2c1
Kd (read-out: Kd): 6 µM
Kd (read-out: pKd (converted)): 6.03 µM

COc1ccc2c(c1)nc(-c1ccc3ccccc3c1)n2-c1ccnc(NC2CCCCC2)n1
Kd (read-out: Kd): 0.743 µM
Kd (read-out: pKd (converted)): 0.741 µM

Oc1ccc2c(c1)nc(-c1ccc3ccccc3c1)n2-c1ccnc(NC2CCCCC2)n1
Kd (read-out: Kd): 1.89 µM
Kd (read-out: pKd (converted)): 1.91 µM

Oc1ccc2c(c1)nc(-c1ccc3ccccc3c1)n2-c1ccnc(NC2CCCCC2)c1
Kd (read-out: Kd): 24.5 µM
Kd (read-out: pKd (converted)): 24.5 µM

O=C(C1CC1)N1CCC[C@@H](Nc2nccc(-n3c(-c4ccc5ccccc5c4)nc4cc(O)ccc43)n2)C1
Kd (read-out: Kd): 2.65 µM
Kd (read-out: pKd (converted)): 2.63 µM

C[C@H](O)CNc1cc(-n2c(-c3cccc(O)c3)nc3ccccc32)ccn1
Kd (read-out: Kd): 19.1 µM
Kd (read-out: pKd (converted)): 19.1 µM

Oc1ccc2c(c1)nc(-c1ccc3ccccc3c1)n2-c1ccnc(NC2CCOCC2)n1
Kd (read-out: Kd): 1.66 µM
Kd (read-out: pKd (converted)): 1.66 µM

O=C(C1CC1)N1CCC[C@@H](Nc2cc(-n3c(-c4ccc5ccccc5c4)nc4ccccc43)ccn2)C1
Kd (read-out: Kd): 10.7 µM
Kd (read-out: pKd (converted)): 10.7 µM

c1ccc2cc(-c3nc4ccccc4n3-c3ccnc(N[C@@H]4CCCNC4)n3)ccc2c1
Kd (read-out: Kd): 2.98 µM
Kd (read-out: pKd (converted)): 2.95 µM

c1ccc2cc(-c3nc4ccccc4n3-c3ccnc(NC4CCOCC4)n3)ccc2c1
Kd (read-out: Kd): 2.33 µM
Kd (read-out: pKd (converted)): 2.34 µM

O=C(C1CC1)N1CCC[C@@H](Nc2nccc(-n3c(-c4ccc(Cl)c(Cl)c4)nc4ccccc43)n2)C1
Kd (read-out: Kd): 7.69 µM
Kd (read-out: pKd (converted)): 7.76 µM

c1ccc2cc(-c3nc4ccccc4n3-c3ccnc(NC4CCOCC4)c3)ccc2c1
Kd (read-out: Kd): 4.65 µM
Kd (read-out: pKd (converted)): 4.68 µM

Oc1ccc2c(c1)nc(-c1ccc(Cl)c(Cl)c1)n2-c1ccnc(NC2CCCCC2)c1
Kd (read-out: Kd): 13.8 µM
Kd (read-out: pKd (converted)): 13.8 µM

COc1ccc2c(c1)nc(-c1ccc3ccccc3c1)n2-c1ccnc(NC2CCCCC2)c1
Kd (read-out: Kd): 176 µM
Kd (read-out: pKd (converted)): 178 µM
